Experimental data: ChEMBL document CHEMBL1151516, “Inhibition of HSV-1 protease by benzoxazinones” (Bioorg Med Chem Lett, 1996)

Tested on: not listed separately
Experiment: Half-life in aqueous solution.
Type: ADME

Compound | half-life [h]
CC(C)Nc1nc2cc(NC(=O)C(C)NC(=O)OCc3ccccc3)ccc2c(=O)o1 (stereo not drawn) | 171
CCOc1nc2c(Cl)ccc(Cl)c2c(=O)o1 | 1

Molecular target: T1, Capsid scaffolding protein (Herpes simplex virus (type 1 / strain 17), UniProt P10210)
T1 sequence (P10210 whole entry): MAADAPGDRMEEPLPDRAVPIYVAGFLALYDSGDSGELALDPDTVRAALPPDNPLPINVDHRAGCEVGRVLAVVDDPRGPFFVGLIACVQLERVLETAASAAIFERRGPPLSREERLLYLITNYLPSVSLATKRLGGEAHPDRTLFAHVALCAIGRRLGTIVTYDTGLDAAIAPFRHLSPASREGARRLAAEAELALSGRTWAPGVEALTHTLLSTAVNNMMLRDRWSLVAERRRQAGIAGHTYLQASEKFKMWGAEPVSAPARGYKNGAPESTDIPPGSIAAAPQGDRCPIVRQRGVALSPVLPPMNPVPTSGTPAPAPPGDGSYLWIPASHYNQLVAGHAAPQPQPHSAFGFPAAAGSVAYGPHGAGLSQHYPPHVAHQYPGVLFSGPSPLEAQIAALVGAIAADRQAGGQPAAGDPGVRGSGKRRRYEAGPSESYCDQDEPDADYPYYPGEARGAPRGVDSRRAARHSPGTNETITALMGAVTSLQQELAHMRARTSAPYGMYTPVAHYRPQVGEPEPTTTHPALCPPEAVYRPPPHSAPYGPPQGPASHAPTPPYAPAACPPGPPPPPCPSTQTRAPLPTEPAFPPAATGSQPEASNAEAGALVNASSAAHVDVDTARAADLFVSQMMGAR
Experiment: Inhibitory activity against herpes simplex type 1 protease (HSV-1 pr).

Compound | IC50 [µM]
CCOc1nc2cccc(CC)c2c(=O)o1 | 20
C[C@@H](NC(=O)OCc1ccccc1)c1nc2cccc(F)c2c(=O)o1 | 200
C[C@H](NC(=O)OCc1ccccc1)c1nc2cccc(F)c2c(=O)o1 | 50
CCOc1nc2cccc(Cl)c2c(=O)o1 | 7
CC(C)Nc1nc2cc(NC(=O)C(C)NC(=O)OCc3ccccc3)ccc2c(=O)o1 (stereo not drawn) | 5
COc1ccc(Oc2nc3ccccc3c(=O)o2)cc1 | 2.5
C[C@H](NC(=O)OCc1ccccc1)c1nc2ccccc2c(=O)o1 | 50
C=CCOc1nc2ccccc2c(=O)o1 | 15
COC(=O)C(C)Nc1nc2ccccc2c(=O)o1 (stereo not drawn) | 25
O=c1oc(Oc2ccccc2)nc2ccccc12 | 10
CC(C)Nc1nc2ccccc2c(=O)o1 | 25
CC(C)Nc1nc2cc(N)ccc2c(=O)o1 | 55
C[C@H](NC(=O)OCc1ccccc1)c1nc2cc(N)ccc2c(=O)o1 | 150
Cc1cccc2nc([C@H](C)NC(=O)OCc3ccccc3)oc(=O)c12 | 120
CCOc1nc2c(Cl)ccc(Cl)c2c(=O)o1 | 1.5
CC(NC(=O)OCc1ccccc1)C(=O)Nc1ccc2c(=O)oc([C@H](C)NC(=O)OCc3ccccc3)nc2c1 (stereo partly drawn) | 12
CC(C)Nc1nc2cc(NC(=O)C(CC(N)=O)NC(=O)OCc3ccccc3)ccc2c(=O)o1 (stereo not drawn) | 15
CCCCNc1nc2ccccc2c(=O)o1 | 300
O=c1oc(Nc2cccc(F)c2)nc2ccccc12 | > 300
CCOc1nc2cccc(C)c2c(=O)o1 | 15
CCOc1nc2cccc(F)c2c(=O)o1 | 75
C[C@H](NC(=O)OCc1ccccc1)c1nc2cccc(Cl)c2c(=O)o1 | > 300
CC(C)COC(=O)Nc1ccc2c(=O)oc(NC(C)C)nc2c1 | 50
CC(Nc1nc2ccccc2c(=O)o1)c1ccccc1 (stereo not drawn) | 60
CCOc1nc2ccccc2c(=O)o1 | 25
CCc1cccc2nc([C@H](C)NC(=O)OCc3ccccc3)oc(=O)c12 | > 300
